Measurements reported in paper PMC6216040, “Repurposing of an old drug: In vitro and in vivo efficacies of buparvaquone against Echinococcus multilocularis” (International Journal for Parasitology: Drugs and Drug …, 2018).
Like-named read-outs stand apart in the source and are kept apart here.

Tested on: E. multilocularis metacestodes
Experiment: PGI-assay: drug-induced damage on in vitro cultured metacestodes (Pathogen Box screening cascade and EC50)
Type: cell-based, Echinococcus multilocularis
Details: for PGI release, % of the Tx-100 control, 5d / PGI release, % of the Tx-100 control, 12d / cytotoxicity at 10 µM: 10 µM, singlets; for PGI release, % of Tx-100 control, average, 5d / PGI release, % of Tx-100 control, average, 12d: confirmatory screening at 10 µM in triplicates, values as % of Tx-100 control; for cytotoxicity at 10 µM: Echinococcus multilocularis
[1] = 120 h, 5 days of incubation, read-out: PGI release, % of the Tx-100 control, 5d
[2] = 288 h, 12 days of incubation, read-out: PGI release, % of the Tx-100 control, 12d

| Structure (SMILES) | PGI release, % of the Tx-100 control, 5d (5 days of incubation) | PGI release, % of the Tx-100 control, 12d (12 days of incubation) | also measured |
| --- | --- | --- | --- |
| COc1ccc(Nc2ccccc2NC(=O)c2ccc(=O)[nH]c2)cc1 [MMV676554] | 0.17% | 3.85% | – |
| Nc1ncnc2c1ncn2[C@@H]1O[C@H](COS(=O)(=O)NC(=O)c2ccccc2O)[C@@H](O)[C@H]1O [MMV687700, Salicyl-AMS, reference compound] | -0.78% | -1.38% | – |
| COc1cccn2c(C(=O)N3CCCCC3)c(C(F)(F)F)nc12 [MMV1110498] | -3.14% | 0.63% | – |
| CCCCc1ccc(NC(=O)Nc2ccc(O[C@H]3CCCC[C@@H]3N(C)c3ccccc3)c(F)c2)cc1 [MMV676063] | 2.73% | 76.51% | PGI release, % of Tx-100 control, average, 5d (5 days of incubation): -1.39%; PGI release, % of Tx-100 control, average, 12d (12 days of incubation): -1.33% |
| CCc1ccccc1-n1c(C)cn2c3c(=O)n(C(C(=O)OC)C(C)C)c(=O)n(C)c3nc12 (stereo not drawn) [MMV688550] | -2.01% | -6.25% | – |
| CCOC(=O)c1c(NC(=O)c2c(F)c(F)c(F)c(F)c2F)sc(C(N)=O)c1C [MMV153413] | 1.93% | 9.70% | – |
| Nc1ncnc2n[nH]c(Cc3cccc4ccccc34)c12 [MMV688469] | -0.61% | -1.22% | – |
| COc1ccc(C2(C(=O)Nc3ccc(Br)cc3)CCCC2)cc1 [MMV200748] | -1.03% | -1.33% | – |
| CCN(CC)CCCN1CCN(C(=O)c2cccc(-c3noc(C(F)(F)F)n3)c2)CC1 [MMV022236] | -0.66% | -2.62% | – |
| O=C(CN1CCOCC1)Nc1ccc2ncnc(Nc3ccc(OCc4cccc(F)c4)c(Cl)c3)c2c1 [MMV688274] | -0.59% | -0.94% | – |
| O=C(Nc1n[nH]c(=S)s1)c1cc(Br)ccc1Cl [MMV676492] | 5.74% | 1.03% | – |
| Brc1c(-c2ccc3c(c2)OCO3)nc2ncccn12 [MMV676377] | 0.59% | -0.19% | – |
| Clc1cccc(CO[C@H]2CCc3ccccc3[C@@H]2n2ccnn2)c1 [MMV676159] | -0.04% | -0.65% | – |
| CC1=Nc2ccc(Cl)cc2C(O)(c2ccc(C)cc2)N1CCN1CCCCC1 (stereo not drawn) [MMV688279] | 0.73% | 1.56% | – |
| CCCn1nnc(NC(=O)COc2ccc(C3CCCCC3)cc2)n1 [MMV676597] | 0.61% | 0.33% | – |
| O=C(C1CCN(c2nnnn2-c2ccccc2)CC1)N1CCc2ccccc2C1 [MMV009135] | -0.49% | -1.30% | – |
| CS(=O)(=O)c1ccc(C(=O)N(CC2CCCO2)c2nc3ccccc3s2)cc1[N+](=O)[O-] (stereo not drawn) [MMV688761] | 1.26% | 0.42% | – |
| COc1ccc(-c2cncc3ccc(C(=O)NCCCn4ccnc4)nc23)cc1 [MMV020670] | 0.79% | -1.21% | – |
| COc1ccc(N(CCc2cccc(C)n2)C(C)=O)cc1 [MMV675995] | 1.72% | 1.78% | – |
| CCCNC(=O)N1CCC2(CC1)CC(=O)c1cc(C)ccc1O2 [MMV085230] | -0.40% | -0.0743% | – |
| CC1CCCCN1C(=O)NCCc1coc(-c2ccc(F)cc2)n1 (stereo not drawn) [MMV688797] | -3.70% | -1.62% | – |
| CC[C@@H](CO)NCCN[C@@H](CC)CO [MMV687801, Ethambutol, reference compound] | – | – | cytotoxicity at 10 µM [1]: -0.84%; cytotoxicity at 10 µM [2]: 0.29% |
| Cc1nnc(NCc2cccc(Cl)c2)c2ccccc12 [MMV676555] | -3.14% | 1.45% | – |
| CCOc1ccc(-c2nc(CNCCc3ccc(F)cc3)cs2)cc1 [MMV688938] | 2.65% | 3.55% | – |
| Cc1cc(Nc2ccc(C(F)(F)F)cc2)n2ccnc2n1 [MMV011229] | -0.86% | -1.35% | – |
| COc1ccc(CCN2CCC(NCc3cccc(N(C)C)c3)CC2)cc1 [MMV011511] | 1.21% | 4.25% | – |
| Cc1cc(Nc2ccncc2)n2nc(C)c(-c3ccccc3Cl)c2n1 [MMV016136] | 0.97% | 2.16% | – |
| CCOc1ccc2cc(-c3nn(CC4CCN(C)CC4)c4ncnc(N)c34)ccc2c1 [MMV688854] | -0.71% | 0.93% | – |

| Structure (SMILES) | PGI release, % of the Tx-100 control, 5d (5 days of incubation) | PGI release, % of the Tx-100 control, 12d (12 days of incubation) | also measured |
| --- | --- | --- | --- |
| CCc1nc2ccc(C(=O)NCc3ccc4c(c3)OCO4)cn2c1N(C)Cc1cccs1 [MMV407539] | -0.20% | 24.66% | PGI release, % of Tx-100 control, average, 5d (5 days of incubation): -1.01%; PGI release, % of Tx-100 control, average, 12d (12 days of incubation): 3.14% |
| Cc1cc(Cl)ccc1NC(=O)CCc1ccc(S(=O)(=O)NCC(C)C)cc1 [MMV161996] | -0.05% | 0.10% | – |
| C[C@]1(O)C[C@@H](c2nc(-c3ccc4ccc(-c5ccccc5)nc4c3)c3c(N)nccn32)C1 [MMV676605, Linsitinib, reference compound] | – | – | cytotoxicity at 10 µM [1]: -0.48%; cytotoxicity at 10 µM [2]: 0.47% |
| Cn1ncc2c(N3CCOCC3)nc(NCCc3c[nH]c4ccccc34)nc21 [MMV676382] | 0.80% | -0.14% | – |
| Cc1ccc(NC(=O)CC2COc3ccccc3O2)cc1Cl (stereo not drawn) [MMV676431] | -2.82% | 0.24% | – |
| CC(C)(C)c1cnc(NC(=O)c2ccccc2O)s1 [MMV495543] | -1.40% | -5.38% | – |
| CN1CCC(NCc2cccc(-c3ccc(S(=O)(=O)NCc4ccccc4)cc3)c2)CC1 [MMV022029] | 0.43% | 0.82% | – |
| CN1CCC(c2cc(-c3ccncc3)c(-c3ccc(F)cc3)[nH]2)CC1 [MMV688703] | 0.17% | -2.29% | – |
| CCN(CC)CCCCCCNc1cc(OC)cc2c(C)ccnc12 [MMV000063, Sitamaquine, reference compound] | – | – | cytotoxicity at 10 µM [1]: -0.0141%; cytotoxicity at 10 µM [2]: 10.8% |
| Cc1cc(NCC(C)C)c2[nH]nc(-c3ccccc3)c2n1 [MMV021375] | -3.66% | 7.43% | – |
| CNC(=O)c1cc(S(=O)(=O)N2CCN(c3ccccn3)CC2)cs1 [MMV020136] | -0.32% | 0.25% | – |
| O=C(Nc1cccc(-c2ccc(NCCCN3CCCC3)nc2)c1)c1ccccc1 [MMV023953] | -0.23% | -3.47% | – |
| CCCn1c(NC(=O)c2ccc3ccccc3n2)nc2ccccc21 [MMV1030799] | 3.64% | 13.68% | – |
| CCc1nc2ccccc2n1CC(O)COc1cc(C)ccc1Cl (stereo not drawn) [MMV676449] | 0.81% | 2.81% | – |
| OC[C@H]1O[C@@H](n2c3ccc(Cl)cc3c3c(-c4cc5ccccc5o4)ncnc32)C(O)[C@H]1O (stereo partly drawn) [MMV688921] | -1.03% | 0.48% | – |
| C[C@H](C(N)=O)N1CCCC[C@H]1c1ccc(OCc2cccc(F)c2)cc1 [MMV676269] | 1.52% | 1.07% | – |
| O=C(Nc1ccc2c(c1)B(O)OC2)c1ccccc1C(F)(F)F [MMV652003] | 1.72% | 7.32% | – |
| COc1cccc(CC(=O)N2CCC(n3c(C)nc4ccc(F)cc43)CC2)c1 [MMV020081] | -1.15% | -0.33% | – |
| O=C1Nc2ccc(Br)cc2C12NCCc1c2[nH]c2ccccc12 (stereo not drawn) [MMV006239] | 0.78% | 2.27% | – |
| Nc1cccnc1Nc1ccc(Cl)cc1 [MMV676524] | 0.13% | 0.29% | – |
| O=C(NC1CC1)c1ccc(N2CCOc3ccc(Cl)cc32)s1 [MMV020537] | 1.89% | 0.98% | – |
| Cc1nc(-c2cccc(NCc3ccccc3)c2)[nH]c1C [MMV023227] | 0.40% | 0.67% | – |
| CC(=O)Nc1ccc(NC(=O)c2cc(-c3cc(Cl)ccc3O)n[nH]2)cc1 [MMV676380] | -0.62% | -0.39% | – |
| Nc1ncnc2c1ncn2C[C@@H](O)[C@@H](O)C(=O)O [MMV689255, Eritadenine] | – | – | cytotoxicity at 10 µM [1]: 0.0047%; cytotoxicity at 10 µM [2]: 0.51% |
| O=S(=O)(c1ccc(Cl)cc1)N1CCN(C(=S)NCc2ccco2)CC1 [MMV000858] | -0.26% | 2.40% | – |
| COc1ccc(C(=N)N)cc1-c1cn(-c2ccc(C(=N)N)cc2)nn1 [MMV675998] | -0.22% | 0.24% | – |
| COc1ccc(-c2cc(NC(=O)c3ccc(F)cc3Cl)ccc2OC)cc1 [MMV676526] | 1.97% | -2.37% | – |
